# Test results published in patent US12448366B2, “Solid forms of pralsetinib” (Rigel Pharmaceuticals, Inc., priority 2020, dated 2025).
# Read-outs that look alike come from different tables or passages of the source.
# How the values were obtained:
# [1] = Qualitative water solubility of salts (salt screen); type: physicochemical
# [2] = Salt screening: XRPD of wet cake, after drying under vacuum at 50° C., after exposure to 97% relative humidity; type: physicochemical; details: XRPD; for stability of salt solid form to humidification: 97% (>95%) relative humidity; for stability of salt solid form to drying: vacuum at 50° C.
# Experimental: Stock solutions of counter-ion were prepared in EtOH, MeOH, or EtOAc, depending on solubility. […] The solvent was allowed to evaporate at room temperature over the weekend and then placed at 50° C. under vacuum for 3 hours to remove any remaining solvent. Approximately 25 volumes solvent (0.6 mL) was added to each vial for screening. The three solvents selected were EtOH, EtOAc, and IPA:water (9:1 vol). […] XRPD analysis was done in three stages. XRPD of the wet cake was done for all samples. Unique solids were then left on XRPD plates and dried under vacuum at 50° C. XRPD of unique dry solids was then done. […] The humid environment was generated by placing a beaker of saturated potassium sulfate in water in a sealed container. All XRPD patterns were compared to counter ion XRPD patterns and known free base patterns. Where solids were not of sufficient quantity to isolate, the solvent was evaporated at room temperature, the material dried at 50° C. under active vacuum for 3 hours, and then reslurried at room temperature in either MtBE or IPAc overnight after heating to 45° C. for 30 minutes.
# RET = details: patients with RET-altered NSCLC and MTC; cited from earlier work
# [3] = Thermal treatment in DSC followed by XRPD (Example 2G); type: physicochemical
# Description: Select solids were used for thermal treatment in DSC. Solids were heated to specified temperature and then cooled back to room temperature for analysis by XRPD.
# [4] = Dynamic vapor sorption (DVS); type: physicochemical; details: for total mass change by DVS: between 2% and 95% relative humidity; for hygroscopicity (words): DVS; for XRPD / form stability after DVS humidity cycling: XRPD before and after DVS
# Experimental: Dynamic Vapor Sorption (DVS) was done using a DVS Intrinsic 1. The sample is loaded into a sample pan and suspended from a microbalance. A typical sample mass for DVS measurement is 25 mg. Nitrogen gas bubbled through distilled water provides the desired relative humidity. A typical measurement comprises the steps: • 1—Equilibrate at 50% RH • 2—50% to 2%. (50%, 40%, 30%, 20%, 10% and 2%) • a. Hold minimum of 5 mins and maximum of 60 minutes at each humidity. The pass criteria is less than 0.002% change • 3—2% to 95% (2%, 10%, 20%, 30%, 40%, 50%, 60%, 70%, 80%, 90%, 95%) • a. Hold minimum of 5 mins and maximum of 60 minutes at each humidity. The pass criteria is less than 0.002% change • 4—95% to 2% (95%, 80%, 70%, 60%, 50%, 40%, 30%, 20%, 10%, 2%) • a. Hold minimum of 5 mins and maximum of 60 minutes at each humidity. The pass criteria is less than 0.002% change • 5—2% to 50% (2%, 10%, 20%, 30%, 40%, 50%) • a. Hold minimum of 5 mins and maximum of 60 minutes at each humidity. The pass criteria is less than 0.002% change High Pressure Liquid Chromatography (HPLC)
# Dynamic Vapor Sorption (DVS) was performed using a DVS Intrinsic 1. The samples (12-31 mg) was loaded into a sample pan, suspended from a microbalance and exposed to a humidified stream of nitrogen gas. The sample was held for a minimum of 5 min at each level and only progressed to the next humidity level if there was <0.002% change in weight between measurements (interval: 60 seconds) or 240 min had elapsed. The following program was used: • 1—Equilibration at 50% RH • 2—50% to 2%. (50%, 40%, 30%, 20%, 10% and 2%) • 3—2% to 95% (2%, 10%, 20%, 30%, 40%, 50%, 60%, 70%, 80%, 90%, 95%) • 4—95% to 2% (95%, 80%, 70%, 60%, 50%, 40%, 30%, 20%, 10%, 2%) • 5—2% to 50% (2%, 10%, 20%, 30%, 40%, 50%) High Performance Liquid Chromatography (HPLC)
# [5] = Humidity exposure, 75% relative humidity at 40° C. for one week, XRPD; type: physicochemical; details: for stability on exposure to 75% relative humidity at 40° C.: one week / 7 days, XRPD
# [6] = Solubility in water and simulated fluids (fasted/fed state simulated intestinal fluid, fasted state simulated gastric fluid); type: physicochemical
# [7] = Competitive slurry experiments between free base solid forms; type: physicochemical; details: for competitive slurry in methanol:water: high ratios of water to methanol and lower temperatures
smiles,measurement,setting,value
"CO[C@]1(C(=O)N[C@@H](C)c2ccc(-n3cc(F)cn3)nc2)CC[C@H](c2nc(C)cc(Nc3cc(C)[nH]n3)n2)CC1 [Solid Form 12-A, pralsetinib]",qualitative water solubility,[1],low
same,stability of salt solid form to humidification,[2]; listed as Pattern 12-A,stable
same,stability of salt solid form to drying,[2]; listed as Pattern 12-A,stable
"CO[C@]1(C(=O)N[C@@H](C)c2ccc(-n3cc(F)cn3)nc2)CC[C@H](c2nc(C)cc(Nc3cc(C)[nH]n3)n2)CC1 [Compound (I), (cis)-N-((S)-1-(6-(4-fluoro-1H-pyrazol-1-yl)pyridin-3-yl)ethyl)-1-methoxy-4-(4 methyl-6-(5-methyl-1H-pyrazol-3-ylamino)pyrimidin-2-yl)cyclohexanecarboxamide]",RET signaling,RET,attenuated
same,clinical responses,RET,durable clinical responses
same,off target toxicity,RET,without notable off target toxicity
"CO[C@]1(C(=O)N[C@@H](C)c2ccc(-n3cc(F)cn3)nc2)CC[C@H](c2nc(C)cc(Nc3cc(C)[nH]n3)n2)CC1 [Solid Form F, pralsetinib]",solid form after heating to 140° C.,[3]; 140° C.,converted to solid form B
"CO[C@]1(C(=O)N[C@@H](C)c2ccc(-n3cc(F)cn3)nc2)CC[C@H](c2nc(C)cc(Nc3cc(C)[nH]n3)n2)CC1 [Solid Form B, pralsetinib]",total mass change by DVS,[4],1.4 wt. %
same,conversion to hydrate Solid Form C on prolonged / high humidity exposure,[5]; listed as Pattern B,not observed to convert back to hydrate XRPD Pattern C
same,stability on exposure to 75% relative humidity at 40° C.,[5]; listed as Pattern B,remained unchanged
same,solid form after heating to 190° C.,[3]; 190° C.,converted to solid form A
"CO[C@]1(C(=O)N[C@@H](C)c2ccc(-n3cc(F)cn3)nc2)CC[C@H](c2nc(C)cc(Nc3cc(C)[nH]n3)n2)CC1 [Solid Form 10-A, pralsetinib]",qualitative water solubility,[1]; listed as salicylate 10-A,low solubility
same,stability of salt solid form to humidification,[2]; listed as 10-A,stable
same,stability of salt solid form to drying,[2]; listed as 10-A,stable
"CO[C@]1(C(=O)N[C@@H](C)c2ccc(-n3cc(F)cn3)nc2)CC[C@H](c2nc(C)cc(Nc3cc(C)[nH]n3)n2)CC1 [Solid Form A, pralsetinib]",reversibility of the DVS mass change,[4],reversible
same,share of the DVS mass change occurring above 70% relative humidity,[4],80%
same,share of the DVS mass change occurring above 80% relative humidity,[4],70%
same,hygroscopicity (words),[4],hygroscopic
same,hygroscopicity (words),[4]; listed as solid form A,hygroscopic
same,DVS Water Mass Change (wt. %),"[4]; Table 3E, listed as Pattern A",10.2 wt. %
same,XRPD / form stability after DVS humidity cycling,[4],stable
same,XRPD / form stability after DVS humidity cycling,[4]; listed as solid form A,Pattern A
same,total mass change by DVS,[4],10.2 wt. %
same,reversible mass change by DVS,[4]; between 2-95% relative humidity,about 10%
same,water mass gained by dynamic vapor sorption,[4]; between 2 and 95% relative humidity at 25° C.,10%
same,water pick-up,[4]; between 15 to 75% relative humidity,about 2%
same,conversion to hydrate Solid Form C on prolonged / high humidity exposure,[5],did not convert to Solid Form C
same,stability on exposure to 75% relative humidity at 40° C.,[5],stable
same,stability on exposure to 75% relative humidity at 40° C.,[5]; listed as Pattern A,remained unchanged
same,solubility in simulated gastric fluid,[6],high solubility
same,solubility in simulated intestinal fluid,[6],low solubility
same,solubility in water,[6],low solubility
same,competitive slurry in methanol:water,[7],converted to Solid Form C
same,competitive slurry in methanol:water,[7]; listed as Pattern A,converted to a praletinib free base material characterized by XRPD Pattern C
same,Competitive slurry MeOH: water (1:1 vol) at 23 and 50° C.,[7]; listed as Pattern A,A converts to C
same,"Competitive slurry isopropanol, MeOH:MtBE",[7]; listed as Pattern A,A stable
same,solid form after a hold at the melting point,[3],did not convert to material with XRPD Pattern H
